Laboratory results taken from ChEMBL document CHEMBL4715697, “Synthesis and biological activity of benzamide DNA minor groove binders” (2016).

Legend:
Format in all cases: functional
[1] = test system: NCI-H23; assay: Growth inhibition of human NCI-H23 cells assessed as cell growth at 0.01 uM incubated for 48 hrs by sulforhodamine B assay relative to control; details: read-out: Activity
[2] = test system: NCI-H460; assay: Growth inhibition of human NCI-H460 cells assessed as cell growth at 0.1 uM incubated for 48 hrs by sulforhodamine B assay relative to control; details: read-out: Activity
[3] = test system: SNB-19; assay: Growth inhibition of human SNB-19 cells assessed as cell growth at 100 uM incubated for 48 hrs by sulforhodamine B assay relative to control; details: read-out: Activity
[4] = test system: MDA-MB-435; assay: Growth inhibition of human MDA-MB-435 cells incubated for 48 hrs by sulforhodamine B assay
[5] = test system: 786-0; assay: Growth inhibition of human 786-0 cells assessed as cell growth at 1 uM incubated for 48 hrs by sulforhodamine B assay relative to control; details: read-out: Activity
[6] = test system: HT-29; assay: Growth inhibition of human HT-29 cells assessed as cell growth at 1 uM incubated for 48 hrs by sulforhodamine B assay relative to control; details: read-out: Activity
[7] = test system: KM12; assay: Growth inhibition of human KM12 cells assessed as cell growth at 0.1 uM incubated for 48 hrs by sulforhodamine B assay relative to control; details: read-out: Activity
[8] = test system: M14; assay: Growth inhibition of human M14 cells assessed as cell growth at 1 uM incubated for 48 hrs by sulforhodamine B assay relative to control; details: read-out: Activity
[9] = test system: MDA-MB-468; assay: Growth inhibition of human MDA-MB-468 cells assessed as cell growth at 0.01 uM incubated for 48 hrs by sulforhodamine B assay relative to control; details: read-out: Activity
[10] = test system: MCF7; assay: Growth inhibition of human MCF7 cells incubated for 48 hrs by sulforhodamine B assay
[11] = test system: SF-268; assay: Growth inhibition of human SF-268 cells assessed as cell growth at 100 uM incubated for 48 hrs by sulforhodamine B assay relative to control; details: read-out: Activity
[12] = test system: EKVX; assay: Growth inhibition of human EKVX cells assessed as cell growth at 0.1 uM incubated for 48 hrs by sulforhodamine B assay relative to control; details: read-out: Activity
[13] = test system: NCI-H322M; assay: Growth inhibition of human NCI-H322M cells assessed as cell growth at 1 uM incubated for 48 hrs by sulforhodamine B assay relative to control; details: read-out: Activity
[14] = test system: NCI-H226; assay: Growth inhibition of human NCI-H226 cells assessed as cell growth at 0.1 uM incubated for 48 hrs by sulforhodamine B assay relative to control; details: read-out: Activity
[15] = test system: HCT-116; assay: Growth inhibition of human HCT-116 cells incubated for 48 hrs by sulforhodamine B assay
[16] = test system: OVCAR-3; assay: Growth inhibition of human OVCAR-3 cells incubated for 48 hrs by sulforhodamine B assay
[17] = test system: SR; assay: Growth inhibition of human SR cells assessed as cell growth at 1 uM incubated for 48 hrs by sulforhodamine B assay relative to control; details: read-out: Activity
[18] = test system: UO-31; assay: Growth inhibition of human UO-31 cells incubated for 48 hrs by sulforhodamine B assay
[19] = test system: PC-3; assay: Growth inhibition of human PC-3 cells assessed as cell growth at 100 uM incubated for 48 hrs by sulforhodamine B assay relative to control; details: read-out: Activity
[20] = test system: SF-295; assay: Growth inhibition of human SF-295 cells incubated for 48 hrs by sulforhodamine B assay
[21] = test system: SF-295; assay: Growth inhibition of human SF-295 cells assessed as cell growth at 1 uM incubated for 48 hrs by sulforhodamine B assay relative to control; details: read-out: Activity
[22] = test system: U-251; assay: Growth inhibition of human U-251 cells assessed as cell growth at 0.1 uM incubated for 48 hrs by sulforhodamine B assay relative to control; details: read-out: Activity
[23] = test system: SF-539; assay: Growth inhibition of human SF-539 cells assessed as cell growth at 100 uM incubated for 48 hrs by sulforhodamine B assay relative to control; details: read-out: Activity
[24] = test system: A549; assay: Growth inhibition of human A549/ATCC cells assessed as cell growth at 0.01 uM incubated for 48 hrs by sulforhodamine B assay relative to control; details: read-out: Activity
[25] = test system: BT-549; assay: Growth inhibition of human BT-549 cells incubated for 48 hrs by sulforhodamine B assay
[26] = test system: SF-295; assay: Growth inhibition of human SF-295 cells assessed as cell growth at 0.01 uM incubated for 48 hrs by sulforhodamine B assay relative to control; details: read-out: Activity
[27] = test system: K562; assay: Growth inhibition of human K562 cells assessed as cell growth at 0.01 uM incubated for 48 hrs by sulforhodamine B assay relative to control; details: read-out: Activity
[28] = test system: NCI/ADR-RES; assay: Growth inhibition of human NCI/ADR-RES cells assessed as cell growth at 1 uM incubated for 48 hrs by sulforhodamine B assay relative to control; details: read-out: Activity
[29] = test system: HOP-62; assay: Growth inhibition of human HOP-62 cells assessed as cell growth at 0.01 uM incubated for 48 hrs by sulforhodamine B assay relative to control; details: read-out: Activity
[30] = test system: TK-10; assay: Growth inhibition of human TK-10 cells assessed as cell growth at 1 uM incubated for 48 hrs by sulforhodamine B assay relative to control; details: read-out: Activity
[31] = test system: MOLT-4; assay: Growth inhibition of human MOLT-4 cells assessed as cell growth at 0.01 uM incubated for 48 hrs by sulforhodamine B assay relative to control; details: read-out: Activity
[32] = test system: SNB-75; assay: Growth inhibition of human SNB-75 cells assessed as cell growth at 0.1 uM incubated for 48 hrs by sulforhodamine B assay relative to control; details: read-out: Activity
[33] = test system: UACC-62; assay: Growth inhibition of human UACC-62 cells assessed as cell growth at 100 uM incubated for 48 hrs by sulforhodamine B assay relative to control; details: read-out: Activity
[34] = test system: OVCAR-8; assay: Growth inhibition of human OVCAR-8 cells assessed as cell growth at 1 uM incubated for 48 hrs by sulforhodamine B assay relative to control; details: read-out: Activity
[35] = test system: MDA-MB-468; assay: Growth inhibition of human MDA-MB-468 cells assessed as cell growth at 0.1 uM incubated for 48 hrs by sulforhodamine B assay relative to control; details: read-out: Activity
[36] = read-out: LC50 (the source's name)
[37] = read-out: pLC50 (the source's name) (converted)

`CC(=O)Nc1cc(CO[Si](C)(C)C(C)(C)C)cc(NC(=O)c2ccc(C(=O)Nc3cccc(NC(=O)CCCN(C)C)c3)cc2)c1` was tested, and the growth at 0.01 µM [1] was 101%, the growth at 0.1 µM [2] was 99% and the growth at 100 µM [3] was 95%. For the same compound, the GI50 ([4]; read-out: GI50) was > 75 µM, the LC50 (50% lethal concentration) ([4]; read-out: LC50) was > 75 µM and the TGI ([4]; read-out: TGI) was > 75 µM. The GI50 ([4]; read-out: pGI50 (converted)) was > 75.9 µM, the LC50 (50% lethal concentration) ([4]; read-out: pLC50 (converted)) was > 75.9 µM and the TGI ([4]; read-out: pTGI) was > 75.9 µM. For the same compound, the growth at 1 µM [5] was 93%, the growth at 1 µM [6] was 113% and the growth at 0.1 µM [7] was 100%. For the same compound, the growth at 1 µM [8] was 101%, the growth at 0.01 µM [9] was 93% and the GI50 ([10]; read-out: GI50) was 29.7 µM. For the same compound, the CC50 [10, 36] was > 75 µM, the TGI ([10]; read-out: TGI) was > 75 µM and the GI50 ([10]; read-out: pGI50 (converted)) was 29.5 µM. For the same compound, the CC50 [10, 37] was > 75.9 µM, the TGI ([10]; read-out: pTGI) was > 75.9 µM and the growth at 100 µM [11] was 82%. For the same compound, the growth at 0.1 µM [12] was 98%, the growth at 1 µM [13] was 97% and the growth at 0.1 µM [14] was 93%. For the same compound, the GI50 ([15]; read-out: GI50) was > 75 µM, the CC50 [15, 36] was > 75 µM and the TGI ([15]; read-out: TGI) was > 75 µM. The GI50 ([15]; read-out: pGI50 (converted)) was > 75.9 µM, the CC50 [15, 37] was > 75.9 µM and the TGI ([15]; read-out: pTGI) was > 75.9 µM. The GI50 ([16]; read-out: GI50) was > 75 µM, the LC50 (50% lethal concentration) ([16]; read-out: LC50) was > 75 µM and the TGI ([16]; read-out: TGI) was > 75 µM. For the same compound, the GI50 ([16]; read-out: pGI50 (converted)) was > 75.9 µM, the LC50 (50% lethal concentration) ([16]; read-out: pLC50 (converted)) was > 75.9 µM and the TGI ([16]; read-out: pTGI) was > 75.9 µM. The growth at 1 µM [17] was 94%, the GI50 ([18]; read-out: GI50) was > 75 µM and the CC50 [18, 36] was > 75 µM. The TGI ([18]; read-out: TGI) was > 75 µM, the GI50 ([18]; read-out: pGI50 (converted)) was > 75.9 µM and the CC50 [18, 37] was > 75.9 µM. For the same compound, the TGI ([18]; read-out: pTGI) was > 75.9 µM, the growth at 100 µM [19] was 93% and the GI50 ([20]; read-out: GI50) was > 75 µM. For the same compound, the LC50 ([20]; read-out: LC50) was > 75 µM, the TGI ([20]; read-out: TGI) was > 75 µM and the GI50 ([20]; read-out: pGI50 (converted)) was > 75.9 µM. For the same compound, the LC50 ([20]; read-out: pLC50 (converted)) was > 75.9 µM, the TGI ([20]; read-out: pTGI) was > 75.9 µM and the growth at 1 µM [21] was 127%. The growth at 0.1 µM [22] was 100%, the growth at 100 µM [23] was 88% and the growth at 0.01 µM [24] was 99%. For the same compound, the GI50 ([25]; read-out: GI50) was > 75 µM, the CC50 [25, 36] was > 75 µM and the TGI ([25]; read-out: TGI) was > 75 µM. The GI50 ([25]; read-out: pGI50 (converted)) was > 75.9 µM, the CC50 [25, 37] was > 75.9 µM and the TGI ([25]; read-out: pTGI) was > 75.9 µM. It also gave a growth at 0.01 µM [26] of 98%, a growth at 0.01 µM [27] of 93% and a growth at 1 µM [28] of 97%. It also gave a growth at 0.01 µM [29] of 97%, a growth at 1 µM [30] of 111% and a growth at 0.01 µM [31] of 87%. For the same compound, the growth at 0.1 µM [32] was 83%, the growth at 100 µM [33] was 72% and the growth at 1 µM [34] was 97%. The growth at 0.1 µM [35] was 93%.
